Reference: US20260297542A1, “HERBICIDE RESISTANT PLANTS” (SYNGENTA CROP PROTECTION AG, priority 2023, published 2026)
Positions count from the first letter of the chain named.

Experiments:
Assay in all cases: fluorescent Protoporphyrinogen Oxidase assay, crude extract
Format in all cases: biochemical
Conditions in all cases: read-out: percentage inhibition
[1] = molecular target: T1, AtPPO1 S305L Y426M (SEQ ID NO.124) (Arabidopsis thaliana, UniProt P55826, S305L/Y426M)
T1 construct: made in house; host or cells: E. coli BL21 (DE3) hemG, crude extract
T1 sequence (P55826 35-537 S305L/Y426M): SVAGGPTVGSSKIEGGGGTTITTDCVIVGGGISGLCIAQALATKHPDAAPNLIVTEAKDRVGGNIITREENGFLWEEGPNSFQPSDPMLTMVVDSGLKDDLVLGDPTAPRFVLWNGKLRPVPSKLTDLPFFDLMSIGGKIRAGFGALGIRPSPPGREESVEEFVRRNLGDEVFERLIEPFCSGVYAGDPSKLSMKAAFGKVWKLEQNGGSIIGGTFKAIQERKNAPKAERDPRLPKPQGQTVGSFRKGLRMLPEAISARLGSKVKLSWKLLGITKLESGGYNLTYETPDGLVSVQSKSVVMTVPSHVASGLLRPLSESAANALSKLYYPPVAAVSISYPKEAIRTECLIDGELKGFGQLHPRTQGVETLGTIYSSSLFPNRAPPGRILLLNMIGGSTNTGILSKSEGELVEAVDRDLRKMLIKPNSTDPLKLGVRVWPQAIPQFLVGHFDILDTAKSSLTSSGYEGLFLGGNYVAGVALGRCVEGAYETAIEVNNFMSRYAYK
Method: (§1) A pET24 plasmid containing a DNA sequence encoding each identified variant mutant of AtPPO1 derived from Arabidopsis thaliana, codon-optimised for expression in E. coli, and under control of a T7 promoter, was synthesised by Twist Bioscience. This plasmid was expressed in E. coli BL21 (DE3) hemG with 50 μg/mL kanamycin and 25 μg/mL chloramphenicol selection. Overnight cultures grown at 37° C. were used to inoculate 150 ml AIM (AIM-Terrific Broth Base including Trace elements, Formedium) in 500 ml shake flasks at a ratio of 1:100. Cultures were grown at 37° C., 200 rpm for 3 hours and then overnight at 26° C. Cells were harvested by 4° C. centrifugation for 20 minutes at 600 rpm. Cells were stored at −80° C. until extraction. 0.5-1 g of cell pellet from was thawed and resuspended in ratio of 1:1 in lysis buffer (20 mM Tris pH8, 500 mM sodium chloride, 10% glycerol, 1× complete Protease EDTA-free Inhibitor Tablet (Roche)). The resuspension was sonicated at 50% using 10-20 cycles of 10 seconds, 20 seconds off. After sonication Triton X-100 was added to the lysates at a final concentration of 0.5%. The lysates were centrifuged at 13.00 rpm for 10 min at 4° C. The crude extracts (i.e, supernatants) were stored at −80° C. Protein concentration was measured and calculated using the absorbance at 280 nm. Extracts were diluted 1 in 4 and 10 uL was analysed by SDS PAGE.
(§2) Variant crude extracts were assayed in a fluorescent Protoporphyrinogen Oxidase assay in black 384 well plates with a clear bottom. The total volume of the reaction mixture was 100 ul and contained 100 mM K2HPO4 pH7.2, 1 mM Na2EDTA, 5 mM DTT, 20% glycerol (v/v), 0.025% Tween 20 (v/v). Reactions were started with addition of 1 uM protoporphyrinogen IX final assay concentration. Fluorescence was monitored over 30 min using a Tecan plate reader with an excitation wavelength of 405 nm, emission wavelength of 635 nm, gain of 90 and 15 flashes. 10 ul of 3-fold serial dilution of crude extract in 100 mM K2HPO4 pH7.2, 1 mM Na2EDTA, 5 mM DTT, 20% glycerol (v/v), 0.05% Tween 20 (v/v) was tested in the assay against 1% DMSO and 100 ppm herbicide B to determine the correct amount of crude extract to add to the assay to observe activity. 10 ul of the appropriate crude extract dilution was then tested in the fluorescent Protoporphyrinogen Oxidase assay against DMSO and 10-fold dose response of each compound (herbicides A to E) with a top rate of 100 ppm.
(§3) The percentage inhibition was calculated as the activity in the presence of one of four concentrations of each herbicide compound A to E (note that the compounds labelled as A to E are identified hereinabove in the relevant section of the description) as a percentage of the enzyme activity in DMSO (Table 5).

WT (SEQ ID NO.1) AtPPO1 = molecular target: T2, WT (SEQ ID NO.1) AtPPO1 (Arabidopsis thaliana, UniProt P55826)
T2 construct: made in house; host or cells: E. coli BL21 (DE3) hemG, crude extract
T2 sequence (P55826 35-537): T1 sequence (P55826 35-537 S305L/Y426M) with L271S, M392Y
Method: as §1, §2, §3

[2] = molecular target: T3, AtPPO1 S305L Y426V L479M (SEQ ID NO.131) (Arabidopsis thaliana, UniProt P55826, L479M/S305L/Y426V)
T3 construct: made in house; host or cells: E. coli BL21 (DE3) hemG, crude extract
T3 sequence (P55826 35-537 S305L/Y426V/L479M): T1 sequence (P55826 35-537 S305L/Y426M) with M392V, L445M
Method: as §1, §2, §3

SMILES: CCOC(=O)C1(C)CC(c2cc(-n3c(=O)cc(C(F)(F)F)n(C)c3=O)c(F)cc2Cl)=NO1 (stereo not drawn) [Herbicide C, 3-(2-chloro-4-fluoro-5-(3-methyl-2,6-dioxo-4-trifluoromethyl-3,6-dihydropyrimidin-1(2H)-yl)phenyl)-5-methyl-4,5-dihydroisoxazole-5-carboxylic acid ethyl ester]
- inhibition at 0.1 ppm [1]: 77%
- inhibition at 1 ppm [1]: 88%
- inhibition at 10 ppm [1]: 100%
- inhibition at 100 ppm [1]: 100%
- inhibition at 0.1 ppm (WT (SEQ ID NO.1) AtPPO1): 91%
- inhibition at 1 ppm (WT (SEQ ID NO.1) AtPPO1): 91%
- inhibition at 10 ppm (WT (SEQ ID NO.1) AtPPO1): 98%
- inhibition at 100 ppm (WT (SEQ ID NO.1) AtPPO1): 93%
- inhibition at 0.1 ppm [2]: 28%
- inhibition at 1 ppm [2]: 59%
- inhibition at 10 ppm [2]: 90%
- inhibition at 100 ppm [2]: 100%

SMILES: C#CCN1C(=O)C(F)(F)Oc2cc(F)c(-n3c(=O)n(C)c(=S)n(C)c3=O)cc21 [Herbicide B, trifludimoxazin]
- inhibition at 0.1 ppm [1]: 100%
- inhibition at 1 ppm [1]: 100%
- inhibition at 10 ppm [1]: 100%
- inhibition at 100 ppm [1]: 100%
- inhibition at 0.1 ppm (WT (SEQ ID NO.1) AtPPO1): 97%
- inhibition at 1 ppm (WT (SEQ ID NO.1) AtPPO1): 97%
- inhibition at 10 ppm (WT (SEQ ID NO.1) AtPPO1): 96%
- inhibition at 100 ppm (WT (SEQ ID NO.1) AtPPO1): 100%
- inhibition at 0.1 ppm [2]: 99%
- inhibition at 1 ppm [2]: 96%
- inhibition at 10 ppm [2]: 100%
- inhibition at 100 ppm [2]: 100%

SMILES: CCOC(=O)[C@]1(C)CC(c2cc(-n3c(=O)n(C)c(=S)n(C)c3=O)c(F)cc2Cl)=NO1 [Herbicide D, ethyl (5S)-3-[2-chloro-5-(3,5-dimethyl-2,6-dioxo-4-thioxo-1,3,5-triazinan-1-yl)-4-fluoro-phenyl]-5-methyl-4H-isoxazole-5-carboxylate]
- inhibition at 0.1 ppm [1]: 53%
- inhibition at 1 ppm [1]: 85%
- inhibition at 10 ppm [1]: 100%
- inhibition at 100 ppm [1]: 100%
- inhibition at 0.1 ppm (WT (SEQ ID NO.1) AtPPO1): 91%
- inhibition at 1 ppm (WT (SEQ ID NO.1) AtPPO1): 90%
- inhibition at 10 ppm (WT (SEQ ID NO.1) AtPPO1): 96%
- inhibition at 100 ppm (WT (SEQ ID NO.1) AtPPO1): 100%
- inhibition at 0.1 ppm [2]: 4%
- inhibition at 1 ppm [2]: 46%
- inhibition at 10 ppm [2]: 76%
- inhibition at 100 ppm [2]: 97%

SMILES: CCOC(=O)COc1ncccc1Oc1cc(-n2c(=O)cc(C(F)(F)F)n(C)c2=O)c(F)cc1Cl [Herbicide A, epyrifenacil]
- inhibition at 0.1 ppm [1]: 34%
- inhibition at 1 ppm [1]: 82%
- inhibition at 10 ppm [1]: 100%
- inhibition at 100 ppm [1]: 100%
- inhibition at 0.1 ppm (WT (SEQ ID NO.1) AtPPO1): 94%
- inhibition at 1 ppm (WT (SEQ ID NO.1) AtPPO1): 100%
- inhibition at 10 ppm (WT (SEQ ID NO.1) AtPPO1): 97%
- inhibition at 100 ppm (WT (SEQ ID NO.1) AtPPO1): 100%
- inhibition at 0.1 ppm [2]: 0%
- inhibition at 1 ppm [2]: 52%
- inhibition at 10 ppm [2]: 87%
- inhibition at 100 ppm [2]: 100%

SMILES: CC(C)N(C)S(=O)(=O)NC(=O)c1cc(-n2c(=O)cc(C(F)(F)F)n(C)c2=O)c(F)cc1Cl [Herbicide E, saflufenacil]
- inhibition at 0.1 ppm [1]: 38%
- inhibition at 1 ppm [1]: 78%
- inhibition at 10 ppm [1]: 100%
- inhibition at 100 ppm [1]: 96%
- inhibition at 0.1 ppm (WT (SEQ ID NO.1) AtPPO1): 91%
- inhibition at 1 ppm (WT (SEQ ID NO.1) AtPPO1): 97%
- inhibition at 10 ppm (WT (SEQ ID NO.1) AtPPO1): 100%
- inhibition at 100 ppm (WT (SEQ ID NO.1) AtPPO1): 100%
- inhibition at 0.1 ppm [2]: 0%
- inhibition at 1 ppm [2]: 28%
- inhibition at 10 ppm [2]: 70%
- inhibition at 100 ppm [2]: 87%
